In publication PMC12501029, “Discovery of a CNS active GSK3 degrader using orthogonally reactive linker screening” (Nature Communications, 2025):

What was measured:
mouse GSK3β = molecular target: T1, mouse GSK3β (Mus musculus, UniProt Q9WV60); assay: Immunoblot degradation in mouse embryonic fibroblast (MEF) cells, 4 h; format: cell-based
T1 construct: Immunoblotting based endogenous degradation profile of KH1 (24) in mouse embryonic fibroblast (MEF) cells; host or cells: MEF cells
Description: HEK293, HAP1, HAP1 CRBN KO and SH-SY5Y cells were plated in either 6 cm plates or 6-well plates at varying densities (0.5–0.7 × 10^6 cells per plate or wells), and MEF cells were plated in 10 cm plates (1–1.2 × 10^6 cells per plate) depending on experimental set up in respective culturing condition as described above. Stock solutions of compounds were prepared as 10 mM in DMSO (Sigma–Aldrich). Working dilutions were made up fresh in DMSO and culturing media or differentiation media was refreshed prior to any compound treatments. For mode of action studies, cells were pre-treated with inhibitors for 2 h: 1 µM MG132 (Merck, 474790-5 mg), 1 µM MLN4924 (Merck, 5054770001) or 1 µM GSK3 inhibitor (compound 29), before treating with PROTACs for 2, 4 or 24 h as indicated in figure legends. Cells were washed twice with ice-cold PBS (Gibco), harvested in PBS and pelleted, cells were resuspended in RIPA buffer supplemented with complete EDTA-free protease inhibitor cocktail (Roche,11873580001, 1/10 mL) and phosSTOP (Roche, 04906845001, 1 tablet/10 mL) for 20 min lysis on ice then cleared via centrifugation at 16,000 × g, 4 °C for 20 min. […] Following clearance of lysates, protein concentrations were determined by the BCA assay (Fisher Scientific, 23225) or Bradford assay (Bio-rad). […]

[1] = test system: GSK3β Ser9 and GSK3β Tyr216 phosphorylation; assay: GSK3β phosphorylation (Ser9, Tyr216) immunoblot in HEK293 cells; format: cell-based, human; settings: 10 nM 24, 27; 10 nM and 1 µM 29; 30 min
Description: HEK293, HAP1, HAP1 CRBN KO and SH-SY5Y cells were plated in either 6 cm plates or 6-well plates at varying densities (0.5–0.7 × 10^6 cells per plate or wells), and MEF cells were plated in 10 cm plates (1–1.2 × 10^6 cells per plate) depending on experimental set up in respective culturing condition as described above. Stock solutions of compounds were prepared as 10 mM in DMSO (Sigma–Aldrich). Working dilutions were made up fresh in DMSO and culturing media or differentiation media was refreshed prior to any compound treatments. For mode of action studies, cells were pre-treated with inhibitors for 2 h: 1 µM MG132 (Merck, 474790-5 mg), 1 µM MLN4924 (Merck, 5054770001) or 1 µM GSK3 inhibitor (compound 29), before treating with PROTACs for 2, 4 or 24 h as indicated in figure legends. Cells were washed twice with ice-cold PBS (Gibco), harvested in PBS and pelleted, cells were resuspended in RIPA buffer supplemented with complete EDTA-free protease inhibitor cocktail (Roche,11873580001, 1/10 mL) and phosSTOP (Roche, 04906845001, 1 tablet/10 mL) for 20 min lysis on ice then cleared via centrifugation at 16,000 × g, 4 °C for 20 min. SH-SY5Y cells were lysed in 500 µL ice-cold lysis buffer (25 mM Tris-HCl (pH 7.4), 50 mM NaF, 100 mM NaCl, 1 mM EDTA, 4 mM EGTA, 1% (v/v) Triton-X-100, 0.09% (w/v) sucrose, 10 mM sodium pyrophosphate, 10 mM sodium vanodate, 0.1% (v/v) β-mercaptoethanol, supplemented with complete mini protease inhibitor tablet (Sigma; 1 tablet/ 10 mL buffer)). Lysates were flash frozen, thawed and centrifugated at 16,000 × g, 4 °C for 20 min. Following clearance of lysates, protein concentrations were determined by the BCA assay (Fisher Scientific, 23225) or Bradford assay (Bio-rad). Five to thirty micrograms of protein from lysates were prepared in 4×LDS buffer (Thermo Fisher) and 50 mM dithiothreitol (DTT) denaturated at 95 °C for 5 min. Proteins were separated on NuPAGE 4–12% Bis-Tris gels (Invitrogen) or 4–12% Novex Tris-glycine gels (Invitrogen) in MOPS buffer (Invitrogen) and transferred onto nitrocellulose membranes using an iBlot3 system (Thermo Fisher Scientific) or nitrocellulose membranes (Cytiva) in cold tris-glycine-methanol buffer (25 mM Tris (pH 7.5), 192 mM glycine, 20% (v/v) methanol). Membranes were blocked with either 5% fat-free milk (Marvel) or 1% (w/v) BSA (Sigma) in TBS-T (20 mM Tris (pH 7.5), 150 mM NaCl, 0.1% (v/v) Tween-20 (Sigma)) at room temperature for 30 min, or in the case of SH-SY5Y assays, 1 h, before incubating with primary antibodies overnight at 4 °C on a rocker. […]

[2] = test system: GSK3β-HiBiT KI HEK293 cells; assay: Multiplexed degradation and cell viability assay (Gly-Phe-AFC fluorescence); format: cell-based, human; settings: up to 24 h and 1 μM (10 nM, 100 nM, 1 µM; 2, 4, 24 h)
Description: For viability tests, GSK3β-HiBiT KI HEK293 cells were seeded onto white-opaque 96-well plates at a density of 2 × 10^4 cells per well. After 16 h, cells were treated with test compounds or DMSO with indicated concentrations for 2, 4 and 24 h. Thirty minutes before the end of treatment, 20 µL of reaction buffer containing Gly-Phe-A FC substrate (1:200 in cell culture media, Chem Cruz, sc506265) added to the each well and cells were returned to cell culture incubator. At the end of the treatment time, HiBiT lytic reagents were prepared according to the manufacturer's instructions (Promega) and 120 µL of reagent dispensed to each well. Fluorescence (viability) and luminescence (degradation) signals were measured by GloMAX discover plate reader (Promega) at the same time. Obtained data analysed using Excel and GraphPad Prism (v10.1.2) as previously described above.

T1 sequence (Q9WV60 whole entry): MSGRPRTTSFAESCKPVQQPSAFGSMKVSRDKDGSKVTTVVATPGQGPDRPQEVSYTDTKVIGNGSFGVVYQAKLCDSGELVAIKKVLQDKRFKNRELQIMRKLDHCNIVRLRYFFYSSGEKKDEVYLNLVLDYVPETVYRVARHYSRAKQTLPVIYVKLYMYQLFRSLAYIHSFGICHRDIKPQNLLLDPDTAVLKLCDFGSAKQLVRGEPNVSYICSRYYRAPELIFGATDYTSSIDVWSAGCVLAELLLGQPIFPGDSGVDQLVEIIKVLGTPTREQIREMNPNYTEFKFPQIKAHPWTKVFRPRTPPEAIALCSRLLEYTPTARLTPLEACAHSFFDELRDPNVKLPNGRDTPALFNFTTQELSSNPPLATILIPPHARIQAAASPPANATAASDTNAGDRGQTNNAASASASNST

For `Cn1nc(N2CCC(=O)NC2=O)c2ccc(CN3CCN(Cc4ccc(-c5cn(-c6ccc(-c7cn8nccc(C(=O)Nc9cnccc9N9CCOCC9)c8n7)cc6)nn5)nc4)CC3)cc21` [compound 24], the DC50 (mouse GSK3β) was 0.1 to 1 nM, the “impact on GSK3β Ser9 or GSK3β Tyr216 phosphorylation prior to degradation” value [1] was “no impact observed” and the “impact on cell viability” value [2] was “no impact on cell viability”.
